Measurements reported in patent US9139548B2, “Polycyclic derivatives, preparation process and pharmaceutical use thereof” (Jiangsu Hengrui Medicine Co., Ltd., priority 2012, dated 2015).

Legend:
[1] = target: T1, GPR40 (Homo sapiens, UniProt O14842); assay: Agonist activity on CHO-K1/GPR40 cell (Fluo-4 calcium fluorescence); assay type: cell-based; settings: CHO-K1 cell line expressing GPR40, calcium ion fluorescence
T1 construct: host or cells: CHO-K1 (Cell bank of the Chinese Academy of Sciences, GNHa 7), retrovirus infection
Text: Agonist activity of compounds of the present disclosure on CHO-K1/GPR40 cell.
The following method was used to determine the agonist activity of compounds of the present disclosure on GPR40. The experiment process is described as follows:
CHO-K1/GPR40 cell (CHO-K1 cell line expressing GPR40, which was constructed using retrovirus infection method, CHO-K1/GPR40 cell for short, wherein CHO-K1 cell was purchased from Cell bank of the Chinese Academy of Sciences, catalogue number GNHa 7; GPR40 cDNA was purchased from Guangzhou FulenGen Co., Ltd, catalogue number EX-UO270-MO2) was inoculated in a 96-well plate with an inoculation density of 25000 cells/well. The cell plate was incubated at 37° C. and 5% CO2 for 24 hours. The cell culture fluid was discarded during the experiment, the cells were washed with buffer solution (1×HBSS+20 mM HEPES pH 7.4) once, 100 μL of Fluo-4 calcium ion dye was quickly added into each well, incubated at 37° C. in the dark for 30 minutes, and then at room temperature for another 30 minutes. During the determination, the baseline value of each well was read at first, and then different concentrations of drug were added to the wells (50 μL/well), and the fluorescence values were then read. The fluorescence excitation wavelength was 494 nm and the emission wavelength was 516 nm. The increase of fluorescence intensity was proportional to calcium ion level in the cells. Cell response rate of each cell/(The maximum fluorescence value−The minimum fluorescence value)/The minimum fluorescence value. EC50 values of the compounds were calculated

[2] = tested on: ICR mice fed on a high fat diet; assay: Oral glucose tolerance test (OGTT) in glucose load mice fed on a high fat diet; assay type: in vivo; settings: blood glucose AUC, high fat diet ICR male mice
Protocol: ICR mice fed on a high fat diet were used as test animals. The effect of oral administration of a single dose of the compounds of the present disclosure on oral glucose tolerance test (OGTT) of glucose load mice was studied.
Compounds of Example 1, Example 2, Example 13, Example 16, Example 18, Example 19 and Example 26
Healthy ICR male mice were purchased from SINO-BRITSH SIPPR/BK LAB. ANIMAL LTD., CO, License number: SCXK (Shanghai) 2008-0016
The test compounds were added to aqueous 0.5% CMC-Na solution to prepare the corresponding concentration suspension using microwave.
After an overnight fast for 16 hours, male mice fed on a high fat diet were weighed, and the basic blood glucose was determined. The mice were randomly divided into a Blank group and the group of each test compound of the present disclosure according to the level of blood glucose.
The dosage of administration was 20 mg/kg or 40 mg/kg, and the Blank group was administered aqueous 0.5 CMC-Na solution.
20% Glucose solution was administered 15 minutes after intragastrical administration (each mouse was administered 0.4 mL)
The compounds were administered according to the aforesaid dosage to determine the blood glucose value (−15 minutes).
At 15 minutes after administration, 20% glucose solution was administrated at a dose of 2 g/kg and the blood glucose values at 0, 15, 30, 45, 60 and 120 minutes in each mouse were determined by Roche Accu-Chek blood glucose monitoring meter.
Using Excel statistical software: the average value was calculated with avg; SD value was calculated with STDEV; and P value of difference among groups was calculated with TTEST. • AUC calculation formula: AUC=(t15min+t0min)×0.25/2+(t30min+t15min)×0.25/2+(t45min+t30min)×0.25/2+(t60min+t45min)×0.25/2+(t120min+t60min)×1/2 • Wherein t0min, t15min, t30min, t45min, t60min, t120min were blood glucose values determined at different time points.

T1 sequence (O14842 whole entry): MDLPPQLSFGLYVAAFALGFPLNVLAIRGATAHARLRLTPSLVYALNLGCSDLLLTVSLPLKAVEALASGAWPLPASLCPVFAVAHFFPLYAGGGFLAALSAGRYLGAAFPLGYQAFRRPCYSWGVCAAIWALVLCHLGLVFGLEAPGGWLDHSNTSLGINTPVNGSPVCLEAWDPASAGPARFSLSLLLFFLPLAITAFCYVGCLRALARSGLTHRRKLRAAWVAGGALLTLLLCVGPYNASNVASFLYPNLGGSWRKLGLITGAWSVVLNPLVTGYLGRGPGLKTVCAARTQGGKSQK

SMILES	EC50 [1] [nM]	AUC decrease rate % ([2]; single oral dose 40 mg/kg) [%]	AUC decrease rate % ([2]; single oral dose 20 mg/kg) [%]
Cc1cc(O[C@@H]2CCC[C@H]2O)cc(C)c1-c1cccc(COc2ccc3c(c2)OC[C@H]3CC(=O)O)c1 (mixture of isomers) [Example 17, 2-((S)-6-((4′-(((1R,2R)/(1S,2S)-2-Hydroxycyclopentyl)oxy)-2′,6′-dimethylbiphenyl-3-yl)methoxy)-2,3-dihydrobenzofuran-3-yl)acetic acid]	157		
Cc1cc(OC2CCNCC2)cc(C)c1-c1cccc(COc2ccc3c(c2)OC[C@H]3CC(=O)O)c1 [Example 4, (S)-2-(6-((2′,6′-Dimethyl-4′-(piperidin-4-yloxy)biphenyl-3-yl)methoxy)-2,3-dihydrobenzofuran-3-yl)acetic acid]	81		
Cc1cc(OC2CCN(S(C)(=O)=O)CC2)cc(C)c1-c1cccc(COc2ccc3c(c2)OC[C@H]3CC(=O)O)c1 [Example 5, (S)-2-(6-((2′,6′-Dimethyl-4′-((1-(methylsulfonyl)piperidin-4-yl)oxy)biphenyl-3-yl)methoxy)-2,3-dihydrobenzofuran-3-yl)acetic acid]	107		
Cc1cc(O[C@H]2CCN(S(C)(=O)=O)C2)cc(C)c1-c1cccc(COc2ccc3c(c2)OC[C@H]3CC(=O)O)c1 [Example 8, 2-((S)-6-((2′,6′-Dimethyl-4′-(((S)-1-(methylsulfonyl)pyrrolidin-3-yl)oxy)biphenyl-3-yl)methoxy)-2,3-dihydrobenzofuran-3-yl)acetic acid]	88		
Cc1cc(OC2CCCC2)cc(C)c1-c1cccc(COc2ccc3c(c2)OC[C@H]3CC(=O)O)c1 [Example 10, (S)-2-(6-((4′-(Cyclopentyloxy)-2′,6′-dimethylbiphenyl-3-yl)methoxy)-2,3-dihydrobenzofuran-3-yl)acetic acid]	134		
Cc1cc(O[C@@H]2CCN(S(C)(=O)=O)C2)cc(C)c1-c1cccc(COc2ccc3c(c2)OC[C@H]3CC(=O)O)c1 [Example 11, 2-((S)-6-((2′,6′-Dimethyl-4′-(((R)-1-(methylsulfonyl)pyrrolidin-3-yl)oxy)biphenyl-3-yl)methoxy)-2,3-dihydrobenzofuran-3-yl)acetic acid]	73		
Cc1cc(O[C@H]2CCOC2)cc(C)c1-c1cccc(COc2ccc3c(c2)OC[C@H]3CC(=O)O)c1C [Example 12, 2-((S)-6-((2,2′,6′-Trimethyl-4′-(((S)-tetrahydrofuran-3-yl)oxy)biphenyl-3-yl)methoxy)-2,3-dihydrobenzofuran-3-yl)acetic acid]	113		
Cc1cc(OC2CNC2)cc(C)c1-c1cccc(COc2ccc3c(c2)OC[C@H]3CC(=O)O)c1 [Example 16, (S)-2-(6-((4′-(Azetidin-3-yloxy)-2′,6′-dimethylbiphenyl-3-yl)methoxy)-2,3-dihydrobenzofuran-3-yl)acetic acid]	15	15.72	
Cc1cc(O[C@H]2CCOC2)cc(C)c1-c1ccc(F)c(COc2ccc3c(c2)OC[C@H]3CC(=O)O)c1 [Example 18, 2-((S)-6-((4-Fluoro-2′,6′-dimethyl-4′-(((S)-tetrahydrofuran-3-yl)oxy)biphenyl-3-yl)methoxy)-2,3-dihydrobenzofuran-3-yl)acetic acid]	28	44.13	
Cc1cc(O[C@H]2CCOC2)c(F)c(C)c1-c1cccc(COc2ccc3c(c2)OC[C@H]3CC(=O)O)c1 [Example 19, 2-((S)-6-((3′-Fluoro-2′,6′-dimethyl-4′-(((S)-tetrahydrofuran-3-yl)oxy)biphenyl-3-yl)methoxy)-2,3-dihydrobenzofuran-3-yl)acetic acid]	55	36.78	
Cc1cc(OC2CN(C(=O)[C@H](C)O)C2)cc(C)c1-c1cccc(COc2ccc3c(c2)OC[C@H]3CC(=O)O)c1 [Example 20, 2-((S)-6-((4′-((1-((S)-2-hydroxypropanoyl)azetidin-3-yl)oxy)-2′,6′-dimethylbiphenyl-3-yl)methoxy)-2,3-dihydrobenzofuran-3-yl)acetic acid]	140		
Cc1cc(OC2CN(C(=O)CO)C2)cc(C)c1-c1cccc(COc2ccc3c(c2)OC[C@H]3CC(=O)O)c1 [Example 21, (S)-2-(6-((4′-((1-(2-hydroxyacetyl)azetidin-3-yl)oxy)-2′,6′-dimethylbiphenyl-3-yl)methoxy)-2,3-dihydrobenzofuran-3-yl)acetic acid]	131		
Cc1cc(OC2CCN(C(=O)[C@H](C)O)CC2)cc(C)c1-c1cccc(COc2ccc3c(c2)OC[C@H]3CC(=O)O)c1 [Example 22, 2-((S)-6-((4′-((1-((S)-2-hydroxypropanoyl)piperidin-4-yl)oxy)-2′,6′-dimethylbiphenyl-3-yl)methoxy)-2,3-dihydrobenzofuran-3-yl)acetic acid]	77		
COC(=O)N1CCC(Oc2cc(C)c(-c3cccc(COc4ccc5c(c4)OC[C@H]5CC(=O)O)c3)c(C)c2)CC1 [Example 23, (S)-2-(6-((4′-((1-(methoxycarbonyl)piperidin-4-yl)oxy)-2′,6′-dimethylbiphenyl-3-yl)methoxy)-2,3-dihydrobenzofuran-3-yl)acetic acid]	141		
Cc1cc(O[C@@H]2CC[C@H](O)[C@@H]2O)cc(C)c1-c1cccc(COc2ccc3c(c2)OC[C@H]3CC(=O)O)c1 [Example 25, 2-((S)-6-((4′-(((1R,2S,3S)-2,3-dihydroxycyclopentyl)oxy)-2′,6′-dimethylbiphenyl-3-yl)methoxy)-2,3-dihydrobenzofuran-3-yl)acetic acid]	31		
Cc1cc(O[C@@H]2CCOC2)cc(C)c1-c1ccc(F)c(COc2ccc3c(c2)OC[C@H]3CC(=O)O)c1 [Example 26, 2-((S)-6-((4-fluoro-2′,6′-dimethyl-4′-(((R)-tetrahydrofuran-3-yl)oxy)biphenyl-3-yl)methoxy)-2,3-dihydrobenzofuran-3-yl)acetic acid]	52	26.06	
Cc1ccc(-c2c(C)cc(O[C@H]3CCOC3)cc2C)cc1COc1ccc2c(c1)OC[C@H]2CC(=O)O [Example 27, 2-((S)-6-((2′,4,6′-trimethyl-4′-(((S)-tetrahydrofuran-3-yl)oxy)biphenyl-3-yl)methoxy)-2,3-dihydrobenzofuran-3-yl)acetic acid]	53		
Cc1cc(O[C@@H]2CCOC2)c(F)c(C)c1-c1cccc(COc2ccc3c(c2)OC[C@H]3CC(=O)O)c1 [Example 28, 2-((S)-6-((3′-fluoro-2′,6′-dimethyl-4′-(((R)-tetrahydrofuran-3-yl)oxy)biphenyl-3-yl)methoxy)-2,3-dihydrobenzofuran-3-yl)acetic acid]	82		
Cc1cc(O[C@H]2COC[C@@H]2O)cc(C)c1-c1cccc(COc2ccc3c(c2)OC[C@H]3CC(=O)O)c1 [Example 29, 2-((S)-6-((4′-(((3S,4S)-4-hydroxytetrahydrofuran-3-yl)oxy)-2′,6′-dimethylbiphenyl-3-yl)methoxy)-2,3-dihydrobenzofuran-3-yl)acetic acid]	41		20.41
Cc1cc(O[C@@H]2CCOC2)cc(C)c1-c1cccc(COc2ccc3c(c2)OC[C@@H]3CC(=O)O)c1 [Example 33, 2-((R)-6-((2′,6′-dimethyl-4′-(((R)-tetrahydrofuran-3-yl)oxy)biphenyl-3-yl)methoxy)-2,3-dihydrobenzofuran-3-yl)acetic acid]	113		
Cc1cc(O[C@H]2CCOC2)cc(C)c1-c1cccc(COc2ccc3c(c2)OC[C@@H]3CC(=O)O)c1 [Example 34, 2-((R)-6-((2′,6′-dimethyl-4′-(((S)-tetrahydrofuran-3-yl)oxy)biphenyl-3-yl)methoxy)-2,3-dihydrobenzofuran-3-yl)acetic acid]	113		
